Test [1] concerns the target T1, PI3K-α (PIK3CA) wild-type (WT), p110α/p85α complex (Homo sapiens, UniProt P42336).
T1 construct: Recombinant, catalytically active human full length PIK3KA Wild-type and H1047R mutant; 6×His (N); purchased EMD Millipore Sigma 14-602M
As to the kind of experiment: PI3K-alpha kinase (PIK3CA) biochemical activity, ADP-Glo, wild-type. An excerpt: (§1) PI3K-Alpha Kinase (PIK3CA) Activity, Wild-Type and H1047R Mutant and Determining IC50 Values for Inhibitors
(§2) Recombinant, catalytically active human full length PIK3KA Wild-type and H1047R mutant were purchased as 1:1 complex of N-terminal 6×his tagged p110α (catalytic) and untagged p85α (regulatory subunit) from EMD Millipore Sigma (cat. no. 14-602M and 14-792M, respectively). PIP2diC8 (Avanti Polar Lipids Inc., cat. no. 850185) or Soy PI (Avanti Polar Lipids Inc., cat. No. 840044P) was used as lipid substrate. PIP2diC8 or PI lyophilized powder was dissolved in milliQ water to a concentration of 1 mM just before use. 10 mM stock compounds in DMSO were serially diluted 1:3 to generate a 10-point curve and plated using an acoustic liquid handler system (Echo 550 series instrument, Labcyte). A 10× intermediate compound plate (200 uM starting compound concentration and 10% DMSO) was prepared before starting the reaction. A typical reaction mixture (50 uL) comprised 40 mM HEPES buffer, pH 7.4, 25 mM MgCl2, 0.01% v/v triton-X-100, 1% v/v DMSO, 20 mM NaCl, 1-5 nM WT or H1047R PI3K protein, 20 uM ATP, and 50 uM PIP2diC8 or Soy PI. 1% DMSO buffer alone without test compound was employed as MAX control (full activity in the absence of any inhibitor), and no enzyme control was used to determine the level of background Adenosine 5′-diphosphate (ADP) (MIN control). First, Wild-type (WT) and H1047R mutant protein in kinase buffer with all components except ATP were incubated with or without compound at 27° C. for 1 h. After the pre-incubation, the reaction was initiated by the addition of 20 uL of 50 uM ATP (20 uM final concentration). The reaction was allowed to proceed until about 10% conversion of ATP (2 uM ADP) at 27° C. After that time, 5 uL of reaction was mixed with 5 uL of ADP-Kinase Glo Reagent (ADP-Glo Kinase assay kit, Promega cat. no. V9102) supplemented with MgCl2 10 mM to stop the reaction and deplete the remaining ATP for 40 min at room temperature. Then, 10 uL of Kinase Detection Reagent (ADP-Glo Kinase assay kit, Promega cat. no. V9102) was added to simultaneously convert ADP to ATP and allow the newly synthesized ATP to be measured using a luciferase/luciferin reaction. After 30 min at room temperature the light generated was measured using a luminometer (EnVision plate reader, Perkin Elmer). Process data through Genedata-Screener tool. Relative IC50 values are determined using luminescence units by calculating percent inhibition with respect to on-plate “MIN” and “MAX” controls. Data was analyzed using a 4-parameter nonlinear logistic equation (four-parameter logistic concentration-response curve): Y=bot+[(top−bot)/1+(x/IC50)slope] where Y=% inhibition, X=concentration yielding y % inhibition, Bottom=minimum value of y attained by curve, Top=maximum value of y attained by curve and Slope=steepness of curve at IC50. % Inh=[(median Max−x/median Max−median Min)]·100 IC50: concentration of compound that reduces a given response (ligand binding, enzyme response) by 50%. IC50 relative: concentration giving half the compound's maximum response.

The target of test [2] is T2, PI3K-α (PIK3CA) H1047R mutant, p110α/p85α complex (Homo sapiens, UniProt P42336, H1047R).
T2 construct: Recombinant, catalytically active human full length PIK3KA Wild-type and H1047R mutant; 6×His (N); purchased EMD Millipore Sigma 14-792M
T2 sequence (P42336 whole entry H1047R): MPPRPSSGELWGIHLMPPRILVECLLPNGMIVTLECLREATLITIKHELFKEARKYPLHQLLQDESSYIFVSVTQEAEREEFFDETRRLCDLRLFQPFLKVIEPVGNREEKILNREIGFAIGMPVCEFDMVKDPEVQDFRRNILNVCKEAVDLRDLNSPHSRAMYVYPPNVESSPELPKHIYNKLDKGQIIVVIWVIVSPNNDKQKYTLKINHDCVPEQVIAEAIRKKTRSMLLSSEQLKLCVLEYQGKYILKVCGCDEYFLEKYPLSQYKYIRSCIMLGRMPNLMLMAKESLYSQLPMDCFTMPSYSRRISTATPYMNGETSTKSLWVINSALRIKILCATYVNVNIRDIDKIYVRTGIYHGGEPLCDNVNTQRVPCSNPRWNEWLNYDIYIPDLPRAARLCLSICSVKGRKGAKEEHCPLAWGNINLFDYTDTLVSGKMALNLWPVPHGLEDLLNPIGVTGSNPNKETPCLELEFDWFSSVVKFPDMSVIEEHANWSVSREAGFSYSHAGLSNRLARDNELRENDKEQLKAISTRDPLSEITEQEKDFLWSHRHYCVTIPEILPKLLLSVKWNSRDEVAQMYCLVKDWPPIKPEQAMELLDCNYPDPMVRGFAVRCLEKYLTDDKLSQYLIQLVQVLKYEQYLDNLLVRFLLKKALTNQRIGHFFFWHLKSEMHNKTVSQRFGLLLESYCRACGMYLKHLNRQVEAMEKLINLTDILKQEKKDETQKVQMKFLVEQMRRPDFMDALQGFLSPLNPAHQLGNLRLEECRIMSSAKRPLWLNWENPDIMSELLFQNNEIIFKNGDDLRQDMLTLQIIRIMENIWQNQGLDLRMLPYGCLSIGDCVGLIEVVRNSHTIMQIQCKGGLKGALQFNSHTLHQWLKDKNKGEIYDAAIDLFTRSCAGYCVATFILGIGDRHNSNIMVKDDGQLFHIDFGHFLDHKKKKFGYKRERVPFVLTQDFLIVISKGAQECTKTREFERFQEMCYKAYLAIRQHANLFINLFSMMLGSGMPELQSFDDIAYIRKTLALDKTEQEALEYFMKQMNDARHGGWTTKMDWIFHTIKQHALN
T2 sequence (P27986 whole entry partner): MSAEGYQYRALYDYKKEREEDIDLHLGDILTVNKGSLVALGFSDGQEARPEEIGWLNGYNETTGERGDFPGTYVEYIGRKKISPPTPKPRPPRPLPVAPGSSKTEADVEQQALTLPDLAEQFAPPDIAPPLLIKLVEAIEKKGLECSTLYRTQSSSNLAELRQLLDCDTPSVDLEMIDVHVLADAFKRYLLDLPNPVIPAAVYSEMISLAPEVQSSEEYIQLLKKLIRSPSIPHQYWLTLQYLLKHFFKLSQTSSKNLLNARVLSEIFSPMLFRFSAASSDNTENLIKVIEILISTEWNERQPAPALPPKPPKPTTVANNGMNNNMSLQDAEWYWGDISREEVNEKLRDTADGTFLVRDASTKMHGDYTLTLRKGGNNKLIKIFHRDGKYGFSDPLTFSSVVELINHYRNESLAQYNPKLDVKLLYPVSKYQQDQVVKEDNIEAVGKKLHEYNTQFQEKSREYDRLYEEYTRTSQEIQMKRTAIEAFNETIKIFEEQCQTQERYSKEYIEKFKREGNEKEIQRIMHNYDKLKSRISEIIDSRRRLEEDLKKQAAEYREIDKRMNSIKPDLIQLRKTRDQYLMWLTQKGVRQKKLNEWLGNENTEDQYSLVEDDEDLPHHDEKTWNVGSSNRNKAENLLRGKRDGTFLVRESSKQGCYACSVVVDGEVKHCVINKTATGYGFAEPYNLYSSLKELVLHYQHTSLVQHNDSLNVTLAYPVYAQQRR
As to the kind of experiment: PI3K-alpha kinase (PIK3CA) biochemical activity, ADP-Glo, H1047R mutant.
Source text: as §1, §2

The mark [3] stands for this setting: PIP2diC8 lipid substrate (footnote 1).

Bounds are passed on as bounds.

Regarding `Cc1cc(C(C)Nc2ccccc2C(=O)O)c2oc(-c3ccc4cncnc4c3)cc(=O)c2c1` (single isomer, unassigned) [Example 114, 2-[1-(6-Methyl-4-oxo-2-quinazolin-7-yl-chromen-8-yl)ethylamino]benzoic acid], the IC50 in test [1] (Soy PI lipid substrate) was above 10 µM; in test [2] (Soy PI lipid substrate), above 10000 nM.
Turning to `Cc1cc(C(C)Nc2ccccc2C(=O)O)c2oc(-n3cnc4ccccc43)cc(=O)c2c1` (single isomer, unassigned) [Example 84, 2-[1-[2-(Benzimidazol-1-yl)-6-methyl-4-oxo-chromen-8-yl]ethylamino]benzoic acid], the concentration for half-maximal inhibition (IC50) in test [1] (Soy PI lipid substrate) is 5 to 10 µM; in test [2] (Soy PI lipid substrate) it was below 500 nM.
On the same counts, the results for `Cc1cc(C(C)Nc2ccccc2C(=O)O)c2oc(-c3cccn4nccc34)cc(=O)c2c1` (single isomer, unassigned) [Example 106, 2-[1-(6-Methyl-4-oxo-2-pyrazolo[1,5-a]pyridin-4-yl-chromen-8-yl)ethylamino]benzoic acid] are below 0.5 µM and below 500 nM.
Taken in the same sequence, the figures for `Cc1cc(C(C)Nc2ccccc2C(=O)O)c2oc(-c3ccc4cn(C)nc4n3)cc(=O)c2c1` (single isomer, unassigned) [Example 135, 2-[1-[6-Methyl-2-(2-methylpyrazolo[3,4-b]pyridin-6-yl)-4-oxo-chromen-8-yl]ethylamino]benzoic acid] were 5 to 10 µM and below 500 nM.
Taken in the same sequence, the figures for `Cc1cc(C(C)Nc2ccccc2C(=O)O)c2oc(-c3c[nH]c4ccccc34)cc(=O)c2c1` (single isomer, unassigned) [Example 155, 2-[1-[2-(1H-Indol-3-yl)-6-methyl-4-oxo-chromen-8-yl]ethylamino]benzoic acid] were 1 to 5 µM and below 500 nM.
For the compound `Cc1cc(C(C)Nc2ccccc2C(=O)O)c2oc(-c3ccc4nc(C)cn4n3)c(C)c(=O)c2c1` (single isomer, unassigned) [Example 142, 2-[1-[3,6-Dimethyl-2-(2-methylimidazo[1,2-b]pyridazin-6-yl)-4-oxo-chromen-8-yl]ethylamino]benzoic acid], the IC50 in test [1] (Soy PI lipid substrate) was 1 to 5 µM; in test [2] (Soy PI lipid substrate), below 500 nM.
On the same counts, the results for `Cc1cc(C(C)Nc2ccccc2C(=O)O)c2oc(-c3nn(C)c4ccccc34)cc(=O)c2c1` (stereo not shown) [Example 12, 2-[1-[6-Methyl-2-(1-methylindazol-3-yl)-4-oxo-chromen-8-yl]ethylamino]benzoic acid] are 5 to 10 µM and below 500 nM.
For `Cc1cc(C(C)Nc2ccccc2C(=O)O)c2oc(-c3cnn4ccccc34)cc(=O)c2c1` (stereo not shown) [Example 10, 2-[1-(6-Methyl-4-oxo-2-pyrazolo[1,5-a]pyridin-3-yl-chromen-8-yl)ethylamino]benzoic acid], the figures for the IC50 in test [1] (Soy PI lipid substrate) and in test [2] (Soy PI lipid substrate) were 1 to 5 µM and below 500 nM, respectively.
On the same counts, the results for `Cc1cc(C(C)Nc2ccccc2C(=O)O)c2oc(-c3ccc4c(c3)CC(=O)N4C)cc(=O)c2c1` (single isomer, unassigned) [Example 62, 2-[1-[6-Methyl-2-(1-methyl-2-oxo-indolin-5-yl)-4-oxo-chromen-8-yl]ethylamino]benzoic acid] are 1 to 5 µM and below 500 nM.
On the same counts, the results for `Cc1cc(C(C)Nc2ccc(C)nc2C(=O)O)c2oc(-c3nn(C)c4ccccc34)cc(=O)c2c1` (single isomer, unassigned) [Example 176, 6-Methyl-3-[1-[6-methyl-2-(1-methylindazol-3-yl)-4-oxo-chromen-8-yl]ethylamino]pyridine-2-carboxylic acid] are above 10 µM and below 500 nM.
For the compound `Cc1cc(C(C)Nc2ccccc2C(=O)O)c2oc(-c3ccc4c(c3)OCO4)cc(=O)c2c1` (single isomer, unassigned) [Example 46, 2-[1-[2-(1,3-Benzodioxol-5-yl)-6-methyl-4-oxo-chromen-8-yl]ethylamino]benzoic acid], the IC50 in test [1] (setting [3]) is below 0.5 µM; in test [2] (setting [3]), below 500 nM.
As to `Cc1cc(C(C)Nc2ccccc2C(=O)O)c2oc(-c3cnc4cn(C)nc4c3)cc(=O)c2c1` (single isomer, unassigned) [Example 43, 2-[1-[6-Methyl-2-(2-methylpyrazolo[4,3-b]pyridin-6-yl)-4-oxo-chromen-8-yl]ethylamino]benzoic acid], the figures for the 50% inhibitory concentration (IC50) in test [1] (Soy PI lipid substrate) and in test [2] (Soy PI lipid substrate) were above 10 µM and above 10000 nM, respectively.
Consider `Cc1cc(-c2cc(=O)c3cc(C(F)(F)F)cc(C(C)Nc4ccc(Cl)nc4C(=O)O)c3o2)cc2cn(C)nc12` (stereo not shown) [Example 174, 6-Chloro-3-[1-[2-(2,7-dimethylindazol-5-yl)-4-oxo-6-(trifluoromethyl)chromen-8-yl]ethylamino]pyridine-2-carboxylic acid], for which the IC50 in test [1] (Soy PI lipid substrate) was above 10 µM; in test [2] (Soy PI lipid substrate) it was below 500 nM.
Taken in the same sequence, the figures for `Cc1cn2nc(-c3cc(=O)c4cc(C(F)(F)F)cc(C(C)Nc5ccccc5C(=O)O)c4o3)ccc2n1` (single isomer, unassigned) [Example 101, 2-[1-[2-(2-Methylimidazo[1,2-b]pyridazin-6-yl)-4-oxo-6-(trifluoromethyl)chromen-8-yl]ethylamino]benzoic acid] were 1 to 5 µM and below 500 nM.
`Cc1cc(C(C)Nc2ccccc2C(=O)O)c2oc(-c3ccn4c(-c5cccnc5)c(C)nc4c3)cc(=O)c2c1` (single isomer, unassigned) [Example 112, 2-[1-[6-Methyl-2-[2-methyl-3-(3-pyridyl)imidazo[1,2-a]pyridin-7-yl]-4-oxo-chromen-8-yl]ethylamino]benzoic acid]: the IC50 in test [1] (Soy PI lipid substrate) was 1 to 5 µM; in test [2] (Soy PI lipid substrate), 500 to 1000 nM.
Taken in the same sequence, the figures for `Cc1cc(C(C)Nc2ccccc2C(=O)O)c2oc(-c3cn(C)c4ccccc34)c(C)c(=O)c2c1` (single isomer, unassigned) [Example 140, 2-[1-[3,6-Dimethyl-2-(1-methylindol-3-yl)-4-oxo-chromen-8-yl]ethylamino]benzoic acid] were 1 to 5 µM and below 500 nM.
Taken in the same sequence, the figures for `Cc1cc(C(C)Nc2ccc(Cl)nc2C(=O)O)c2oc(-c3ccc4nn(C)cc4c3)cc(=O)c2c1` (single isomer, unassigned) [Example 83, 6-Chloro-3-[1-[6-methyl-2-(2-methylindazol-5-yl)-4-oxo-chromen-8-yl]ethylamino]pyridine-2-carboxylic acid] were 0.5 to 1 µM and below 500 nM.
Taken in the same sequence, the figures for `Cc1cc([C@@H](C)Nc2ccc(C)nc2C(=O)O)c2oc(-c3ccc4nn(C)cc4c3)c(C)c(=O)c2c1` [Example 200, 3-[[(1R)-1-[3,6-Dimethyl-2-(2-methylindazol-5-yl)-4-oxo-chromen-8-yl]ethyl]amino]-6-methyl-pyridine-2-carboxylic acid] were 0.5 to 1 µM and below 500 nM.
Take `Cc1cc(C(C)Nc2ccccc2C(=O)O)c2oc(-c3ccc4nc(C)cn4n3)cc(=O)c2c1` (single isomer, unassigned) [Example 107, 2-[1-[6-Methyl-2-(2-methylimidazo[1,2-b]pyridazin-6-yl)-4-oxo-chromen-8-yl]ethylamino]benzoic acid]: the IC50 was in the range of 1 to 5 µM in test [1] (Soy PI lipid substrate) and 500 to 1000 nM in test [2] (Soy PI lipid substrate).
As to `Cc1cc(C(C)Nc2ccccc2C(=O)O)c2oc(-c3ccc4cnncc4c3)cc(=O)c2c1` (single isomer, unassigned) [Example 47, 2-[1-(6-Methyl-4-oxo-2-phthalazin-6-yl-chromen-8-yl)ethylamino]benzoic acid], the values for the half-inhibitory concentration (IC50) in test [1] (Soy PI lipid substrate) and in test [2] (Soy PI lipid substrate) were 1 to 5 µM and below 500 nM, respectively.

A word on the IC50: it is the concentration that inhibits the measured activity by half. A higher IC50 goes with a need for much substance.

The values are drawn from patent US11878970B2, “Allosteric chromenone inhibitors of phosphoinositide 3-kinase (PI3K) for the treatment of disease” (Petra Pharma Corporation, priority 2021, dated 2024).
